The source of these data is the NIST ThermoML archive (doi:10.1021/je900027h).

For the series the following is noted: Crystal; DTA.

Numbers after ± are expanded uncertainties.

With `c1ccc2c(c1)ccc1ccccc12` [phenanthrene], the Normal melting temperature amounted to 104.92 ± 0.5 °C.
